Laboratory results: US10543171B2, “Dermal drug delivery using amphiphilic dendron-coil micelles” (THE BOARD OF TRUSTEES OF THE UNIVERSITY OF ILLINOIS, priority 2013, dated 2020)
Entries after “also recorded” stand apart in the source; their conditions may differ.

Assays:
MDA-MB-231 cells = assay: in vitro anti-proliferation assay (MTS) against MDA-MB-231; type: cell-based; conditions: ER-negative; comparable drug concentrations; listed as free EDX
[1] = 25° C.; cited from earlier work
folate receptors (FR) = conditions: read-out: affinity for FR (KD); cited from earlier work
[2] = skin deposition of Cou6 from two-dye dendron micelles (CLSM, spectrofluorometer); type: in vitro ADME, mouse
Method: To prepare two-dye dendron micelles, two milligrams of acetylated, RHO-labeled PDC (PDC-RHO-Ac) was combined with 10 mg of unlabeled surface modified PDC in 1.2 mL DMF, and 2% (wt %) of Cou6 was added to the mixture. The materials were fully dissolved and mixed by brief vortexing followed by gentle shaking for 2 h. The Cou6-encapsulated, RHO-labeled dendron micelles were prepared by the dialysis method, and the solid material was obtained by lyophilization as described above.
SKH-1 hairless mouse skin was exposed to the Cou6-loaded micelles with different surfaces for 24 h in the Franz cell setup. The skin area that was exposed to the treatment was carefully collected, rinsed twice with ddH2O for 10 min and embedded into cryomolds (Tissue-Tek®, Sakura Finetek USA, Inc., Torrance, Calif.). Skin was cryosectioned into 80 um-thick slices and placed on anti-frost glass slides. The slides were then fixed by 10% neutral buffered formalin for 10 min at RT and rinsed with ddH2O. The skin slides were mounted with antiphotobleaching mounting media with DAPI (Vector Laboratory Inc., Burlingame, Calif.) and covered with glass cover slips. […]
After the two-dye micelle experiment, the fluorescence intensity in the donor and receiver solutions, as well as skin extracts were detected using a SoftMax Pro spectrofluorometer (Spectra MAX, Molecular Devices Inc., Sunnyvale, Calif.). […]

CC/C(=C(\c1ccc(O)cc1)c1ccc(OCCNC)cc1)c1ccccc1 [EDX, 4-hydroxy-N-desmethyl tamoxifen]
anti-proliferative effect / cytotoxicity against MDA-MB-231 cells (MDA-MB-231 cells): neither free EDX nor EDX-loaded micelles had significant cytotoxicity; also recorded: Neither free EDX nor EDX-loaded DMs exhibited significant anti-proliferative effect | partition coefficient (log P) [1]: 6.01

Nc1nc2ncc(CNc3ccc(C(=O)N[C@@H](CCC(=O)O)C(=O)O)cc3)nc2c(=O)[nH]1 [FA, folic acid]
Kd (folate receptors (FR)): ~0.1 nM

CCN(CC)c1ccc2cc(-c3nc4ccccc4s3)c(=O)oc2c1 [free Cou6, Coumarin-6]
Cou6 delivered into skin (skin extract) ([2]; Cou6-encapsulated, RHO-labeled micelles or free Cou6 in ethanol, mouse skin): 26.48±2.51% | Cou6 distribution in skin layers (CLSM) ([2]; mouse skin cross-sections after Franz cell experiment): could not diffuse efficiently into the skin layers
